In US20250170141A1, “MRGPRX2 MODULATORS AND RELATED METHODS OF TREATMENT” (Escient Pharmaceuticals, Inc., priority 2023, published 2025):

Biological target: T1, human MRGPRX2 (Homo sapiens, UniProt Q96LB1)
T1 construct: expressed in transfected cells; host or cells: CHO cells, stably transfected (G418 and Hygromycin B selection)
T1 sequence (Q96LB1 1-330): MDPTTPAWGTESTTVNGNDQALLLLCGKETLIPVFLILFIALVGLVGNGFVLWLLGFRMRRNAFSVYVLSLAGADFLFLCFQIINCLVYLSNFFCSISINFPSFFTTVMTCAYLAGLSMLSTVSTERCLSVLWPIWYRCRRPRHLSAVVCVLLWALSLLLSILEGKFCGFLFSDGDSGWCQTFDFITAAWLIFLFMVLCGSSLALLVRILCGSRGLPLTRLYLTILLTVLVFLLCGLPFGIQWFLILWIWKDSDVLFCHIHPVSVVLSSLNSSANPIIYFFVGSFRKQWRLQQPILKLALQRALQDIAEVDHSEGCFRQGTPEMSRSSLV
Assay: MRGPRX2 activity: IP-One Gq HTRF assay in CHO cells, antagonism versus 0.3 uM Cortistatin-14
Type: cell-based
Details: versus 0.3 uM Cortistatin-14 agonist, CHO cells expressing human MRGPRX2, read-out: MRGPRX2 Antagonist Activity
Protocol: CHO cells stably transfected to express human MRGPRX2 were maintained in an incubator at 37° C. with 5% CO2 and grown in F12 (HAM) media with 10% fetal bovine serum (FBS), 1% Glutamax, 1% penicillin/streptomycin, 800 μg/mL Geneticin (G418), and 300 μg/mL Hygromycin B.
Cells were plated in a 384-well assay plate at 20,000 cells per well in 12 μL of Opti-MEM and kept in an incubator overnight. On the day of the assay, compounds solubilized at 10 mM in DMSO were added as a 10-point curve (30 uM final top concentration with 1:3 serial dilutions) using a Tecan D300E digital dispenser. Agonists were diluted in assay buffer (final concentrations of 5.7 mM Tris-HCl, 43 mM NaCl, 50 mM LiCl, pH=8) and 2 μL of the agonist Cortistatin-14 (CPC Scientific, catalog CORT-002) are added to each well. Final concentrations of agonists were 0.3 μM Cortistatin. Final concentrations of DMSO were kept consistent across the plate. Plates were incubated in the dark for 1 h at 37° C. and then for 1 h at room temperature. IP-1 standards and HTRF detection reagents were added according to the IP-One—Gq Kit purchased from Cisbio (part number 62IPAPEJ) and incubated in the dark for 1 h at room temperature. The plate was read on a Molecular Devices SpectraMax iD5 plate reader. The HTRF ratio was calculated from the raw data and graphed using GraphPad Prism to calculate an IC50 value for each compound.
The activity ranges are denoted as follows: “+++++” denotes antagonist activity <100 nM; “++++” denotes antagonist activity between 100 and 500 nM; “+++” denotes activity between 501 and 1000 nM; “++” denotes activity between 1001 and 2500 nM; and “+” denotes activity >2500 nM.

Compound	IC50 [nM]
CC(c1ccc(Oc2ccccc2)cc1)c1c(F)ccc2c1NC(NCc1cccc(F)c1)=NS2(=O)=O (centres unmarked) [Compound 22-15, 6-fluoro-3-((3-fluorobenzyl)amino)-5-(1-(4-phenoxyphenyl)ethyl)-4H-benzo[e][1,2,4]thiadiazine 1,1-dioxide]	501 to 1000
O=S1(=O)N=C(NCc2ccc(F)cc2)Nc2c1ccc(F)c2Oc1ccccc1Cl [Compound 1-12, 5-(2-chlorophenoxy)-6-fluoro-3-((4-fluorobenzyl)amino)-4H-benzo[e][1,2,4]thiadiazine 1,1-dioxide]	100 to 500
N#Cc1cccc(Oc2c(F)ccc3c2NC(NCc2ncccc2F)=NS3(=O)=O)c1 [Compound 2-13, 3-((6-fluoro-3-(((3-fluoropyridin-2-yl)methyl)amino)-1,1-dioxido-4H-benzo[e][1,2,4]thiadiazin-5-yl)oxy)benzonitrile]	501 to 1000
CC(c1ccc(N(C)C)cc1)c1c(F)ccc2c1NC(NCc1cccc(F)c1)=NS2(=O)=O (centres unmarked) [Compound 22-13, 5-(1-(4-(dimethylamino)phenyl)ethyl)-6-fluoro-3-((3-fluorobenzyl)amino)-4H-benzo[e][1,2,4]thiadiazine 1,1-dioxide]	100 to 500
O=S1(=O)N=C(NCc2ncccc2F)Nc2c(NCc3ccccc3Cl)cccc21 [Compound 17-1, 5-((2-chlorobenzyl)amino)-3-(((3-fluoropyridin-2-yl)methyl)amino)-4H-benzo[e][1,2,4]thiadiazine 1,1-dioxide]	> 2500
Cc1cc(F)c(Oc2ccccc2Cl)c2c1S(=O)(=O)N=C(NCc1ncccc1F)N2 [Compound 1-45, 5-(2-chlorophenoxy)-6-fluoro-3-(((3-fluoropyridin-2-yl)methyl)amino)-8-methyl-4H-benzo[e][1,2,4]thiadiazine 1,1-dioxide]	100 to 500
O=S1(=O)N=C(NCc2ncccc2O)Nc2c1cc(F)c(F)c2Cc1ccccc1Cl [Compound 4-18, 5-(2-chlorobenzyl)-6,7-difluoro-3-(((3-hydroxypyridin-2-yl)methyl)amino)-4H-benzo[e][1,2,4]thiadiazine 1,1-dioxide]	> 2500
CC(c1ccc(N2CCOCC2)cc1)c1c(F)ccc2c1NC(NCc1cccc(F)c1)=NS2(=O)=O (centres unmarked) [Compound 22-16, 6-fluoro-3-((3-fluorobenzyl)amino)-5-(1-(4-morpholinophenyl)ethyl)-4H-benzo[e][1,2,4]thiadiazine 1,1-dioxide]	1000 to 2500
O=S1(=O)N=C(NCc2ncccc2F)Nc2c1ccc(F)c2Oc1ccccc1F [Compound 1-15, 6-fluoro-5-(2-fluorophenoxy)-3-(((3-fluoropyridin-2-yl)methyl)amino)-4H-benzo[e][1,2,4]thiadiazine 1,1-dioxide]	100 to 500
O=S1(=O)N=C(NCc2ccc(F)cc2F)Nc2c1cc(F)c(F)c2Cc1ccccc1Cl [Compound 4-8, 5-(2-chlorobenzyl)-3-((2,4-difluorobenzyl)amino)-6,7-difluoro-4H-benzo[e][1,2,4]thiadiazine 1,1-dioxide]	100 to 500
O=S1(=O)N=C(NCc2ncccc2F)Nc2c1ccc(F)c2C#Cc1ccccc1 [Compound 19-1, 6-fluoro-3-(((3-fluoropyridin-2-yl)methyl)amino)-5-(phenylethynyl)-4H-benzo[e][1,2,4]thiadiazine 1,1-dioxide]	100 to 500
COc1ccc(F)c(CNC2=NS(=O)(=O)c3ccc(F)c(Oc4ccccc4Cl)c3N2)c1 [Compound 1-20, 5-(2-chlorophenoxy)-6-fluoro-3-((2-fluoro-5-methoxybenzyl)amino)-4H-benzo[e][1,2,4]thiadiazine 1,1-dioxide]	1000 to 2500
CC(c1c(F)ccc2c1NC(NCc1cccc(F)c1)=NS2(=O)=O)C1CCOCC1 (centres unmarked) [Compound 22-3, 6-fluoro-3-((3-fluorobenzyl)amino)-5-(1-(tetrahydro-2H-pyran-4-yl)ethyl)-4H-benzo[e][1,2,4]thiadiazine 1,1-dioxide]	< 100
Cc1ccc(CNC2=NS(=O)(=O)c3cccc(Cc4ccccc4Cl)c3N2)c(F)c1 [Compound 12-6, 5-(2-chlorobenzyl)-3-((2-fluoro-4-methylbenzyl)amino)-4H-benzo[e][1,2,4]thiadiazine 1,1-dioxide]	< 100
O=S1(=O)N=C(NCc2cccc(F)c2)Nc2c1ccc(F)c2Oc1ccccc1Cl [Compound 1-11, 5-(2-chlorophenoxy)-6-fluoro-3-((3-fluorobenzyl)amino)-4H-benzo[e][1,2,4]thiadiazine 1,1-dioxide]	< 100
O=S1(=O)N=C(NCc2cnccc2Cl)Nc2c(Cc3ccccc3Cl)cccc21 [Compound 12-32, 5-(2-chlorobenzyl)-3-(((4-chloropyridin-3-yl)methyl)amino)-4H-benzo[e][1,2,4]thiadiazine 1,1-dioxide]	< 100
O=S1(=O)N=C(NCc2ncccc2F)Nc2c1ccc(F)c2Oc1ccc(F)cc1 [Compound 2-7, 6-fluoro-5-(4-fluorophenoxy)-3-(((3-fluoropyridin-2-yl)methyl)amino)-4H-benzo[e][1,2,4]thiadiazine 1,1-dioxide]	100 to 500
[2H]c1ccc2c(c1[C@H](C)c1ccccc1F)NC(NCc1ncccc1F)=NS2(=O)=O [Compound 23-1, (S)-5-(1-(2-fluorophenyl)ethyl)-3-(((3-fluoropyridin-2-yl)methyl)amino)-4H-benzo[e][1,2,4]thiadiazine 1,1-dioxide-6-d]	< 100
Cc1nn(C)cc1C(C)c1c(F)ccc2c1NC(NCc1cccc(F)c1)=NS2(=O)=O (centres unmarked) [Compound 22-19, 5-(1-(1,3-dimethyl-1H-pyrazol-4-yl)ethyl)-6-fluoro-3-((3-fluorobenzyl)amino)-4H-benzo[e][1,2,4]thiadiazine 1,1-dioxide]	< 100

Second part, the compound after the results:

IC50 [nM]	Compound
< 100	O=S1(=O)N=C(NCc2ccccc2F)Nc2c(CCc3ccccc3)cccc21 [Compound 6-18, 3-((2-fluorobenzyl)amino)-5-phenethyl-4H-benzo[e][1,2,4]thiadiazine 1,1-dioxide]
< 100	O=S1(=O)N=C(NCc2ncccc2Cl)Nc2c(/C=C/c3ccccc3F)cccc21 [Compound 14-1, (E)-3-(((3-chloropyridin-2-yl)methyl)amino)-5-(2-fluorostyryl)-4H-benzo[e][1,2,4]thiadiazine 1,1-dioxide]
< 100	C=C(c1ccccc1F)c1cccc2c1NC(NCc1ncccc1F)=NS2(=O)=O [Compound 13-2, 5-(1-(2-fluorophenyl)vinyl)-3-(((3-fluoropyridin-2-yl)methyl)amino)-4H-benzo[e][1,2,4]thiadiazine 1,1-dioxide]
< 100	Cc1ccccc1Cc1cccc2c1NC(NCc1ccccc1F)=NS2(=O)=O [Compound 6-7, 3-((2-fluorobenzyl)amino)-5-(2-methylbenzyl)-4H-benzo[e][1,2,4]thiadiazine 1,1-dioxide]
< 100	COc1ccccc1CNC1=NS(=O)(=O)c2ccc(F)c(C(C)c3ccccc3F)c2N1 (centres unmarked) [Compound 7-9, 6-fluoro-5-(1-(2-fluorophenyl)ethyl)-3-((2-methoxybenzyl)amino)-4H-benzo[e][1,2,4]thiadiazine 1,1-dioxide]
< 100	O=S1(=O)N=C(NCc2ncccc2Cl)Nc2c1cc(F)c(F)c2Oc1ccccc1Cl [Compound 1-6, 5-(2-chlorophenoxy)-3-(((3-chloropyridin-2-yl)methyl)amino)-6,7-difluoro-4H-benzo[e][1,2,4]thiadiazine 1,1-dioxide]
< 100	CC(c1ccccc1F)c1c(F)ccc2c1NC(NCc1cc(Cl)cc(Cl)c1)=NS2(=O)=O (centres unmarked) [Compound 7-8, 3-((3,5-dichlorobenzyl)amino)-6-fluoro-5-(1-(2-fluorophenyl)ethyl)-4H-benzo[e][1,2,4]thiadiazine 1,1-dioxide]
< 100	O=S1(=O)N=C(NCc2ncccc2F)Nc2c(/C=C/c3ccccc3F)cccc21 [Compound 14-3, (E)-3-(((3-fluoropyridin-2-yl)methyl)amino)-5-(2-fluorostyryl)-4H-benzo[e][1,2,4]thiadiazine 1,1-dioxide]
< 100	O=S1(=O)N=C(NCc2cccc(Cl)c2F)Nc2c1ccc(F)c2Oc1ccccc1Cl [Compound 1-25, 3-((3-chloro-2-fluorobenzyl)amino)-5-(2-chlorophenoxy)-6-fluoro-4H-benzo[e][1,2,4]thiadiazine 1,1-dioxide]
< 100	CC(c1ccccc1)c1c(F)ccc2c1NC(NCc1cccc(F)c1)=NS2(=O)=O (centres unmarked) [Compound 22-1, 6-fluoro-3-((3-fluorobenzyl)amino)-5-(1-phenylethyl)-4H-benzo[e][1,2,4]thiadiazine 1,1-dioxide]
